Data from the NIST ThermoML archive (doi:10.1016/j.jct.2012.01.022).
± gives the expanded uncertainty stated by the source.

Conditions: 298.15 K, 101.33 kPa, Liquid; for viscosity: Capillary tube (Ostwald / Ubbelohde) method; for speed of sound: Sing-around technique in a fixed-path interferometer; for mass density: Vibrating tube method

Compound | viscosity | speed of sound | mass density
CCCCCCCCCCO [decan-1-ol] | 11.19 ± 0.062 mPa·s | 1379.8 ± 0.9 m/s | 826.47 ± 0.14 kg/m3
NCCN [ethane-1,2-diamine] | 1.405 ± 0.012 mPa·s | 1671.6 ± 1.3 m/s | 892.389 ± 0.23 kg/m3
CCCCCCO [hexan-1-ol] | 4.439 ± 0.042 mPa·s | 1303.2 ± 1.7 m/s | 815.265 ± 0.41 kg/m3
CCCCCCCCO [octan-1-ol] | 7.143 ± 0.041 mPa·s | 1347.5 ± 0.9 m/s | 821.794 ± 0.14 kg/m3
